From US6878722B2, “Substituted cycloalkyl P1′ hepatitis C virus inhibitors” (Bristol-Myers Squibb Company, priority 2002, dated 2005)

How the values were obtained:
[1] = target: T1, HCV NS3/4A protease complex (BMS strain, genotype 1a) (Hepatitis C virus genotype 1a, UniProt P27958, C1454S); experiment: Recombinant HCV NS3/4A protease complex FRET peptide assay, BMS strain; assay type: biochemical; settings: IC50 range, NS3/4A BMS Strain
T1 construct: DNA encoding the recombinant HCV NS3/4A protease complex (amino acids 1027 to 1711) for these strains; inferred from the pET21b vector and Ni-NTA purification; made in house; host or cells: Escherichia coli BL21 (DE3), pET21b
T1 sequence (P27958 1658-1714, looked up, stated change not applied): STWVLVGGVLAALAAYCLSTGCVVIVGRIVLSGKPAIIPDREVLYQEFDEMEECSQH
T1 sequence (P27958 1027-1657, looked up, stated change not applied): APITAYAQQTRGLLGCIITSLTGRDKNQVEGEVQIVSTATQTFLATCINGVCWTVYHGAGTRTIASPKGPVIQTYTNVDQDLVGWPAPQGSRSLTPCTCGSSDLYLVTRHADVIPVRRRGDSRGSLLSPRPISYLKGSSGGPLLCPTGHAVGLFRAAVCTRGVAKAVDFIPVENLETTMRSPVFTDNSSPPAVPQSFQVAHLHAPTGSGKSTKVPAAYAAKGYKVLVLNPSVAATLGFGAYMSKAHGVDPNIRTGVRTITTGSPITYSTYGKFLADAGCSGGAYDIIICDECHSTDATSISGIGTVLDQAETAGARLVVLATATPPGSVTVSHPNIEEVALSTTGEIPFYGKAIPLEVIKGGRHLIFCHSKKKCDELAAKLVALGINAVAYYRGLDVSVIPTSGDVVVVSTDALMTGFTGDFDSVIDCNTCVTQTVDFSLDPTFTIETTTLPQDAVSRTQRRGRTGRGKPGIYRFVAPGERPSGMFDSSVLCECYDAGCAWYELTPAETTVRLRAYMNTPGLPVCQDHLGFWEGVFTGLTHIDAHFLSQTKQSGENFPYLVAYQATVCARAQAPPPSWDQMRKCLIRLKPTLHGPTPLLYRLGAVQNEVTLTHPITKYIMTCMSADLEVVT
Summary of the method: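 Recombinant NS3/4A complex (aa 1027–1711) with C-terminal three-lysine tail, C1711G and C1454S, expressed in E. coli BL21(DE3) and purified by Ni-NTA then Superdex-S200. Inhibition of the complex from each strain measured in vitro by FRET peptide cleavage.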

[2] = test system: HCV replicon in Huh7 cells; experiment: HCV replicon cell-based assay (FRET); settings: Hepatitis C virus, Huh-7; HCV replicon; read-out: EC50 range
Summary of the method: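 Huh7 cells stably carrying a genotype 1b HCV replicon (IRES-neo-EMCV-IRES-NS3-NS5B) were treated with compound for 4 days at 37 °C in 0.5% DMSO final. Lysates containing 10 μM FRET peptide RET S1 were read kinetically at 340/490 nm to give NS3 protease activity, from which EC50 was derived.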

SMILES | IC50 [1] [µM] | EC50 [2] [µM]
C=C[C@@H]1C[C@]1(NC(=O)[C@@H]1C[C@@H](Oc2ccnc3cc(Cl)ccc23)CN1C(=O)[C@@H](NC(=O)OC1CCCC1)C(C)(C)C)C(=O)NS(=O)(=O)C1(CCC)CC1 [Compound 64, (1-{4-(7-Chloro-quinolin-4-yloxy)-2-[1-(1-propyl-cyclopropanesulfonylaminocarbonyl)-2-vinyl-cyclopropylcarbamoyl]-pyrrolidine-1-carbonyl}-2,2-dimethyl-propyl)-carbamic acid cyclopentyl ester] | < 0.05 | 0.05 to 0.5
C=C[C@@H]1C[C@]1(NC(=O)[C@@H]1C[C@@H](Oc2cc(-c3csc(NC(C)C)n3)nc3cc(OC)ccc23)CN1C(=O)[C@@H](NC(=O)OC(C)(C)C)C(C)(C)C)C(=O)NS(=O)(=O)C1(CC2CC2)CC1 [Compound 80, (1-{2-[1-(1-Cyclopropylmethyl-cyclopropanesulfonylaminocarbonyl)-2-vinyl-cyclopropylcarbamoyl]-4-[2-(2-isopropylamino-thiazol-4-yl)-7-methoxy-quinolin-4-yloxy]-pyrrolidine-1-carbonyl}-2,2-dimethyl-propyl)-carbamic acid tert-butyl ester] | < 0.05 | 0.05 to 0.5
C=C[C@@H]1C[C@]1(NC(=O)[C@@H]1C[C@@H](Oc2cc(-c3ccccc3)nc3cc(OC)ccc23)CN1C(=O)[C@@H](NC(=O)OC(C)(C)C)C(C)(C)C)C(=O)NS(=O)(=O)C1(CCOCc2ccccc2)CC1 [Compound 36, {1-[2-{1-[1-(2-Benzyloxy-ethyl)-cyclopropanesulfonylaminocarbonyl]-2-vinyl-cyclopropylcarbamoyl}-4-(7-methoxy-2-phenyl-quinolin-4-yloxy)-pyrrolidine-1-carbonyl]-2,2-dimethyl-propyl}-carbamic acid tert-butyl ester] | < 0.05 | < 0.05
C=CCC1(S(=O)(=O)NC(=O)[C@@]2(NC(=O)[C@@H]3C[C@@H](Oc4cc(-c5ccccc5)nc5cc(OC)ccc45)CN3C(=O)[C@@H](NC(=O)OC(C)(C)C)C(C)(C)C)CC2C=C)CC1 (some centres unmarked) [Compound 2, {1-[2-[1-(1-Allylcyclopropanesul-fonylaminocarbonyl)-2-vinylcyclopropylcarbamoyl]-4-(7-methoxy-2-phenylquinolin-4-yloxy)-pyrrolidine-1-carbonyl]-2,2-dimethylpropyl}carbamic acid tert-butyl ester] | < 0.05 | < 0.05
C=C[C@@H]1C[C@]1(NC(=O)[C@@H]1C[C@@H](Oc2cc(-c3ccccc3)nc3cc(OC)ccc23)CN1C(=O)[C@@H](NC(=O)OC(C)(C)C)C(C)(C)C)C(=O)NS(=O)(=O)C1(CCOC)CC1 [Compound 35, {1-[2-{1-[1-(2-Methoxy-ethyl)-cyclopropanesulfonylaminocarbonyl]-2-vinyl-cyclopropylcarbamoyl}-4-(7-methoxy-2-phenyl-quinolin-4-yloxy)-pyrrolidine-1-carbonyl]-2,2-dimethyl-propyl}-carbamic acid tert-butyl ester] | < 0.05 | < 0.05
COc1ccc2c(O[C@@H]3C[C@@H](C(=O)NC4(C(=O)NS(=O)(=O)C5([Si](C)(C)C)CC5)CC4)N(C(=O)[C@@H](NC(=O)OC(C)(C)C)C(C)(C)C)C3)cc(-c3ccccc3)nc2c1 [Compound 71] | 0.05 to 0.5 | 0.5 to 5
C=C[C@@H]1C[C@]1(NC(=O)[C@@H]1C[C@@H](Oc2cc(-c3ccccc3)nc3cc(OC)ccc23)CN1C(=O)[C@@H](NC(=O)OC(C)(C)C)C(C)(C)C)C(=O)NS(=O)(=O)C1(C=C(C)C)CC1 [Compound 44, [1-(4-(7-Methoxy-2-phenyl-quinolin-4-yloxy)-2-{1-[1-(2-methyl-propenyl)-cyclopropanesulfonylaminocarbonyl]-2-vinyl-cyclopropylcarbamoyl}-pyrrolidine-1-carbonyl)-2,2-dimethyl-propyl]-carbamic acid tert-butyl ester] | < 0.05 | 0.05 to 0.5
C=C[C@@H]1C[C@]1(NC(=O)[C@@H]1C[C@@H](Oc2cc(-c3ccccc3)nc3cc(OC)ccc23)CN1C(=O)[C@@H](NC(=O)OC(C)(C)C)C(C)(C)C)C(=O)NS(=O)(=O)C1(CCCC)CC1 [Compound 30, {1-[2-[1-(1-Butyl-cyclopropanesulfonylaminocarbonyl)-2-vinyl-cyclopropylcarbamoyl]-4-(7-methoxy-2-phenyl-quinolin-4-yloxy)-pyrrolidine-1-carbonyl]-2,2-dimethyl-propyl}-carbamic acid tert-butyl ester] | < 0.05 | < 0.05
C=C[C@@H]1C[C@]1(NC(=O)[C@@H]1C[C@@H](Oc2cc(-c3ccccc3)nc3cc(OC)ccc23)CN1C(=O)[C@@H](NC(=O)Oc1ccc(C)cc1)C(C)(C)C)C(=O)NS(=O)(=O)C1(Cc2ccccc2)CC1 [Compound 100] | 0.05 to 0.5 | 0.5 to 5
C=CCC1(S(=O)(=O)NC(=O)[C@@]2(NC(=O)[C@@H]3C[C@@H](Oc4ccnc5cc(Cl)ccc45)CN3C(=O)[C@@H](NC(=O)OC3CCCC3)C(C)(C)C)C[C@H]2C=C)CC1 [Compound 67, {1-[2-[1-(1-Allyl-cyclopropanesulfonylaminocarbonyl)-2-vinyl-cyclopropylcarbamoyl]-4-(7-chloro-quinolin-4-yloxy)-pyrrolidine-1-carbonyl]-2,2-dimethyl-propyl}-carbamic acid cyclopentyl ester] | 0.05 to 0.5 | 0.05 to 0.5
C=C[C@@H]1C[C@]1(NC(=O)[C@@H]1C[C@@H](Oc2cc(-c3ccccc3)nc3cc(OC)ccc23)CN1C(=O)[C@@H](NC(=O)Oc1ccc(F)cc1)C(C)(C)C)C(=O)NS(=O)(=O)C1(Cc2ccccc2)CC1 [Compound 102] | 0.05 to 0.5 | 0.5 to 5
C=C[C@@H]1C[C@]1(NC(=O)[C@@H]1C[C@@H](Oc2ccnc3cc(Cl)ccc23)CN1C(=O)[C@@H](NC(=O)OC1CCCC1)C(C)(C)C)C(=O)NS(=O)(=O)C1(C)CC1 [Compound 63, (1-{4-(7-Chloro-quinolin-4-yloxy)-2-[1-(1-methyl-cyclopropanesulfonylaminocarbonyl)-2-vinyl-cyclopropylcarbamoyl]-pyrrolidine-1-carbonyl}-2,2-dimethyl-propyl)-carbamic acid cyclopentyl ester] | < 0.05 | < 0.05
C=CC1C[C@]1(NC(=O)[C@@H]1C[C@@H](Oc2cc(-c3ccccc3)nc3cc(OC)ccc23)CN1C(=O)[C@@H](NC(=O)OC(C)(C)C)C(C)(C)C)C(=O)NS(=O)(=O)C1(C(=O)Nc2c(C)noc2C)CC1 (some centres unmarked) [Compound 10, {1-[2-{1-[1-(3,5-Dimethylisoxazol-4-ylcarbamoyl)cyclopropanesul-fonylaminocarbonyl]-2-vinylcyclopropylcarbamoyl}-4-(7-methoxy-2-phenylquinolin-4-yloxy)pyrrolidine-1-carbon-yl]-2,2-dimethylpropyl}carbamicacid tert-butyl ester] | < 0.05 | < 0.05
C=C[C@@H]1C[C@]1(NC(=O)[C@@H]1C[C@@H](Oc2cc(-c3ccccc3)nc3cc(OC)ccc23)CN1C(=O)[C@@H](NC(=O)Oc1cccc(C(F)(F)F)c1)C(C)(C)C)C(=O)NS(=O)(=O)C1(Cc2ccccc2)CC1 [Compound 108] | 0.05 to 0.5 | 0.5 to 5
C=CC1C[C@]1(NC(=O)[C@@H]1C[C@@H](Oc2cc(-c3ccccc3)nc3cc(OC)ccc23)CN1C(=O)[C@@H](NC(=O)OC(C)(C)C)C(C)(C)C)C(=O)NS(=O)(=O)C1(Cc2ccccc2)CC1 (stereo in doubt) [Compound 5, {1-[2-[1-(1-Benzylcyclopropanesulfonyl-aminocarbonyl)-2-vinyl-cyclopropylcarbamoyl]-4-(7-methoxy-2-phenylquinolin-4-yloxy)-pyrrolidine-1-carbonyl]-2,2-dimethylpropyl}-carbamic acid tert-butyl ester] | < 0.05 | < 0.05
C=C[C@@H]1C[C@]1(NC(=O)[C@@H]1C[C@@H](Oc2cc(-c3ccccc3)nc3cc(OC)ccc23)CN1C(=O)[C@@H](NC(=O)Oc1ccccc1OC)C(C)(C)C)C(=O)NS(=O)(=O)C1(Cc2ccccc2)CC1 [Compound 107] | 0.05 to 0.5 | 0.5 to 5
C=C[C@@H]1C[C@]1(NC(=O)[C@@H]1C[C@@H](Oc2cc(-c3ccccc3)nc3cc(OC)ccc23)CN1C(=O)[C@@H](NC(=O)COC)C(C)(C)C)C(=O)NS(=O)(=O)C1(Cc2ccccc2)CC1 [Compound 111] | 0.05 to 0.5 | 0.05 to 0.5
COc1ccc2c(O[C@@H]3C[C@@H](C(=O)NC4(C(=O)NS(=O)(=O)C5(C(=O)Nc6ccccc6)CC5)CC4)N(C(=O)[C@@H](NC(=O)OC(C)(C)C)C(C)(C)C)C3)cc(-c3ccccc3)nc2c1 [Compound 72, (1-{4-(7-Methoxy-2-phenyl-quinolin-4-yloxy)-2-[1-(1-phenylcarbamoyl-cyclopropanesulfonylaminocarbonyl)-cyclopropylcarbamoyl]-pyrrolidine-1-carbonyl}-2,2-dimethyl-propyl)-carbamic acid tert-butyl ester] | 0.5 to 5 | 5 to 50
COc1ccc2c(O[C@@H]3C[C@@H](C(=O)NC4(C(=O)NS(=O)(=O)C5(C6=CCCCC6)CC5)CC4)N(C(=O)[C@@H](NC(=O)OC(C)(C)C)C(C)(C)C)C3)cc(-c3ccccc3)nc2c1 [Compound 76, {1-[2-[1-(1-Cyclohex-1-enyl-cyclopropanesulfonylaminocarbonyl)-cyclopropylcarbamoyl]-4-(7-methoxy-2-phenyl-quinolin-4-yloxy)-pyrrolidine-1-carbonyl]-2,2-dimethyl-propyl}-carbamic acid tert-butyl ester] | 0.05 to 0.5 | 0.5 to 5
